US11357756B2, “Anesthetic compositions and methods comprising imidazoline compounds” (Warsaw Orthopedic, Inc., priority 2017, dated 2022)
Entries after “also recorded” stand apart in the source; their conditions may differ. Structures can show the parent of a compound that is named as a salt.

Assays:
[1] = system: sciatic nerve; test: Evoked compound action potentials (CAP), ipsilateral sciatic nerve after intraneural injection; format: in vivo, male Sprague Dawley (SD) rats; conditions: for effect of yohimbine pre-administration on elimination of evoked sciatic action potentials by clonidine: 1 mg yohimbine SQ 5 minutes prior to 500 μg intraneural clonidine, HCL
Excerpt: (§1) It is noted that alpha 2 adrenergic receptors are not expressed along the peripheral axons of the nerve. They are on nerve endings and in the spinal cord, where peripheral nerves synapse with interneurons in the dorsal horn. There also may be receptor-mediated effects on immunoinflammatory cells. […] However, there was no effect on the left sciatic nerve.
2 m Amp stimulation in the ankle causes the action potential to propagate up to the tibial nerves and then the sciatic nerve to the dorsal horn of the spinal cord in the rat model.
(§2) Methods: Peripheral nerve function was assessed by evoked action potentials (sciatic nerve) as well as spinal somatosensory evoked potentials in male Sprague Dawley (SD) rats. The tibial nerve was stimulated with 10 milliamperes (mA) constant current delivered with platinum micro-electrodes placed proximal to the internal ankle. Recording electrodes were placed near the proximal sciatic nerve at the sciatic notch (ipsilateral and contralateral nerves) and over the L5 interlaminar space. Measurements were obtained with a Biopac MP36 amplifier and data acquisition unit (Biopac Systems, Goleta, Cal). Following collection of baseline data, test solutions were administered directly into the subparaneural compartment of the right sciatic nerve, approximately 0.5 cm proximal to the tibial/fibular bifurcation, using a Hamilton HPLC injection syringe (20 μl, injection volume). Saline served as the negative control and commercial 2% lidocaine for injection served as the positive control.
(§3) FIG. 21 depicts representative compound action potential traces (CAP), sciatic nerve. A stimulating electrode delivered 10 mAMP current to the distal tibial nerve near the internal ankle, and a recording electrode was placed near the proximal sciatic nerve (at the sciatic notch). Following baseline recordings (top row), test solution was injected directly into the sciatic nerve (20 μl volume). Evoked compound action potentials at 3 minutes and approximately 50 minutes post-injection appear in the middle and bottom rows, respectively.

[2] = system: sciatic nerve; test: Spinal somatosensory evoked potentials (SSEP) after intraneural sciatic injection; format: in vivo, male Sprague Dawley (SD) rats
Procedure: as §2

[3] = system: contralateral sciatic nerve; test: Evoked action potentials, contralateral sciatic nerve; format: in vivo, male Sprague Dawley (SD) rats
Procedure: as §1, §2, §3

[4] = system: incisional pain model; conditions: no temporal relationship to systemic exposure; cited from earlier work
[5] = intraneural injection, 20 μl, 4 parameter non-linear regression
[6] = commercial 2% lidocaine for injection, 20 μl intraneural

Clc1cccc(Cl)c1N=C1NCCN1 [clonidine, 2,6-dichloro-N-2-imidazolidinyldenebenzenamine]
effect on CAP amplitude ([1]; 50 μg intraneural): no discernable effect | time through which sciatic evoked potential amplitude differed from control (p<0.05) ([1]; 100 μg): 7 min | effect on action potential (CAP) amplitude ([1]; 100 μg intraneural, versus control, 3 minutes): significant reduction; also recorded: significantly blunted | time through which sciatic evoked potential amplitude differed from control (p<0.05) ([1]; 200 μg): 18 min | effect on action potential (CAP) amplitude ([1]; 200 μg intraneural): significantly greater reduction | effect on action potential (CAP) amplitude ([1]; 200 μg intraneural, listed as clonidine HCL): virtually eliminated | time through which sciatic evoked potential amplitude differed from control (p<0.05) ([1]; 500 μg): 35 min | effect on compound action potentials in the ipsilateral sciatic nerve ([1]; 500 μg intraneural): reliably eliminated | doses at which an anesthetic like effect was observed ([1]; Example 1, clinically relevant doses): < 100 µg | dose injected directly into nerve that eliminates the action potential ([1]; Example 2, 2 m Amp stimulation in the ankle): ≥ 50 µg | duration of effect ([1]; Example 2, 500 mcg lasts a lot longer than 50 mcg): proportional to dose | nerve conduction velocity as nerve fibers return to function ([1]; higher doses): approximately normal | effect on propagation of action potentials, right sciatic nerve ([1]; injected directly into the right sciatic nerve of the rat (Example 1)): blocked the ability of the nerve to propagate action potentials to the spinal cord | EC50 for evoked compound action potentials in the sciatic nerve [1, 5]: 71 µg | effect on nerve conduction velocity (ipsilateral sciatic nerve) ([1]; lower doses, fibers that continue to propagate action potentials): modest | animals in which spinal somatosensory evoked potentials were eliminated ([2]; 500 μg intraneural): 3 out of 4 | EC50 for spinal somatosensory evoked potentials [2, 5]: 118 µg | effect on the contralateral sciatic nerve ([3]; 500 μg intraneural): no effect | effect on the contralateral sciatic nerve ([3]; any dose of clonidine (50-500 μg), including spinal recordings following contralateral stimulation): not affected | effect on the left sciatic nerve ([3]; injected into the right sciatic nerve (Example 1)): no effect | skin concentrations associated with analgesic effect [4]: ≥ 10 ng/g

CCN(CC)CC(=O)Nc1c(C)cccc1C [lidocaine]
time through which sciatic evoked potential amplitude differed from control (p<0.05) ([1]; 2% lidocaine): 35 min | time for which compound action potentials in the ipsilateral sciatic nerve and spine were eliminated [1, 6]: > 20 min | time over which nerve function recovered ([1]; positive control 2% lidocaine (Example 1)): approximately one hour | effect on the contralateral sciatic nerve [3, 6]: did not affect

COC(=O)[C@@H]1[C@H]2C[C@H]3c4[nH]c5ccccc5c4CCN3C[C@@H]2CC[C@@H]1O [yohimbine HCL]
effect of yohimbine pre-administration on elimination of evoked sciatic action potentials by clonidine [1]: unaffected; also recorded: no effect | effect of yohimbine pre-administration on elimination of evoked sciatic action potentials by clonidine ([1]; listed as yohimbine): no effect | effect of yohimbine pre-administration on sciatic nerve block duration by clonidine ([1]; pre-administration t=(−)10 minutes): did not inhibit | effect of yohimbine pre-administration on reduction in spinal SEP amplitude by clonidine ([2]; 1 mg yohimbine prior to 500 μg intraneural clonidine): no effect
